Assay results: PubChem BioAssay AID1918937 (Molecular Pharmacology Branch, DTP, NCI, 2023)

System: 521955-158-R2-J5-PDC complex spheroid viability
Experiment: Anticancer human tumor 521955-158-R2-J5-PDC patient-derived pancreatic carcinoma cell line growth inhibition
Conditions: for IC50: curve of first compound; for viability, T/C: stronger effect = lower value
Summary of the method: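 Multicellular complex spheroids of tumor cells with human endothelial cells (HUVEC) and mesenchymal stem cells; the LSD1 inhibitor iadademstat was combined with standard-of-care or investigational agents. Top concentration at or near clinical Cmax, half-log dilutions; final DMSO ≤0.25%.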

[1] = second compound 0.1 µM, first compound 0.000316 µM
[2] = second compound 0.1 µM, first compound 0.001 µM
[3] = second compound 0.1 µM, first compound 0.00316 µM
[4] = second compound 0.1 µM, first compound 0.01 µM
[5] = second compound 0.1 µM, first compound 0.0316 µM
[6] = second compound 0.1 µM, first compound 0.1 µM
[7] = second compound 0.316 µM, first compound 0.000316 µM
[8] = second compound 0.316 µM, first compound 0.001 µM
[9] = second compound 0.316 µM, first compound 0.00316 µM
[10] = second compound 0.316 µM, first compound 0.01 µM
[11] = second compound 0.316 µM, first compound 0.0316 µM
[12] = second compound 0.316 µM, first compound 0.1 µM
[13] = second compound 1 µM, first compound 0.000316 µM
[14] = second compound 1 µM, first compound 0.001 µM
[15] = second compound 1 µM, first compound 0.00316 µM
[16] = second compound 1 µM, first compound 0.01 µM
[17] = second compound 1 µM, first compound 0.0316 µM
[18] = second compound 1 µM, first compound 0.1 µM
[19] = second compound 3.16 µM, first compound 0.000316 µM
[20] = second compound 3.16 µM, first compound 0.001 µM
[21] = second compound 3.16 µM, first compound 0.00316 µM
[22] = second compound 3.16 µM, first compound 0.01 µM
[23] = second compound 3.16 µM, first compound 0.0316 µM
[24] = second compound 3.16 µM, first compound 0.1 µM
[25] = second compound 10 µM, first compound 0.000316 µM
[26] = second compound 10 µM, first compound 0.001 µM
[27] = second compound 10 µM, first compound 0.00316 µM
[28] = second compound 10 µM, first compound 0.01 µM
[29] = second compound 10 µM, first compound 0.0316 µM
[30] = second compound 10 µM, first compound 0.1 µM
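Note: spheroids exposed to agents for seven days.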
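Throughout, for viability, T/C: percent of DMSO vehicle control luminescence viability.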

## CC(C)CC(NC(=O)C(Cc1ccccc1)NC(=O)c1cnccn1)B(O)O (stereo not given) + NC1CC1c1ccc(-c2cccc(O)c2)cc1
Second compound 0.1 µM
  IC50: 0.538 nM
Second compound 0.316 µM
  IC50: 0.504 nM
Second compound 1 µM
  IC50: 0.515 nM
Second compound 3.16 µM
  IC50: 0.462 nM
Second compound 10 µM
  IC50: 0.336 nM
[1]
  viability, T/C: 92.2%
[2]
  viability, T/C: 0.66%
[3]
  viability, T/C: 0.11%
[4]
  viability, T/C: 0.08%
[5]
  viability, T/C: 0.09%
[6]
  viability, T/C: 0.26%
[7]
  viability, T/C: 83.8%
[8]
  viability, T/C: 0.44%
[9]
  viability, T/C: 0.17%
[10]
  viability, T/C: 0.18%
[11]
  viability, T/C: 0.1%
[12]
  viability, T/C: 0.3%
[13]
  viability, T/C: 86.6%
[14]
  viability, T/C: 0.35%
[15]
  viability, T/C: 0.24%
[16]
  viability, T/C: 0.04%
[17]
  viability, T/C: 0.06%
[18]
  viability, T/C: 0.28%
[19]
  viability, T/C: 74.4%
[20]
  viability, T/C: 0.52%
[21]
  viability, T/C: 0.15%
[22]
  viability, T/C: 0.08%
[23]
  viability, T/C: 0.07%
[24]
  viability, T/C: 0.2%
[25]
  viability, T/C: 52.8%
[26]
  viability, T/C: 0.4%
[27]
  viability, T/C: 0.22%
[28]
  viability, T/C: 2.1%
[29]
  viability, T/C: 0.17%
[30]
  viability, T/C: 1.31%

## CC(C)CC(NC(=O)CNC(=O)c1cc(Cl)ccc1Cl)B1OC(=O)CC(CC(=O)O)(C(=O)O)O1 (stereo not given) + NC1CC1c1ccc(-c2cccc(O)c2)cc1
Second compound 0.1 µM
  IC50: 5.71 nM
Second compound 0.316 µM
  IC50: 5.63 nM
Second compound 1 µM
  IC50: 5.49 nM
Second compound 3.16 µM
  IC50: 5.37 nM
Second compound 10 µM
  IC50: 4.75 nM
[1]
  viability, T/C: 83.1%
[2]
  viability, T/C: 91.7%
[3]
  viability, T/C: 86.8%
[4]
  viability, T/C: 15.1%
[5]
  viability, T/C: 0.96%
[6]
  viability, T/C: 0.46%
[7]
  viability, T/C: 73.4%
[8]
  viability, T/C: 90.5%
[9]
  viability, T/C: 89.2%
[10]
  viability, T/C: 15.8%
[11]
  viability, T/C: 0.53%
[12]
  viability, T/C: 0.18%
[13]
  viability, T/C: 81.3%
[14]
  viability, T/C: 83.6%
[15]
  viability, T/C: 87.3%
[16]
  viability, T/C: 13%
[17]
  viability, T/C: 0.98%
[18]
  viability, T/C: 0.23%
[19]
  viability, T/C: 76.3%
[20]
  viability, T/C: 86.2%
[21]
  viability, T/C: 83.8%
[22]
  viability, T/C: 12.3%
[23]
  viability, T/C: 0.68%
[24]
  viability, T/C: 0.23%
[25]
  viability, T/C: 87.6%
[26]
  viability, T/C: 93.7%
[27]
  viability, T/C: 72.7%
[28]
  viability, T/C: 8.29%
[29]
  viability, T/C: 0.39%
[30]
  viability, T/C: 0.24%

## COc1cc(Nc2ncc3c(n2)-c2ccc(Cl)cc2C(c2c(F)cccc2OC)=NC3)ccc1C(=O)O + NC1CC1c1ccc(-c2cccc(O)c2)cc1
Second compound 0.1 µM
  IC50: > 1000 nM
Second compound 0.316 µM
  IC50: > 1000 nM
Second compound 1 µM
  IC50: > 1000 nM
Second compound 3.16 µM
  IC50: > 1000 nM
Second compound 10 µM
  IC50: > 1000 nM
[3]
  viability, T/C: 67.5%
[4]
  viability, T/C: 73.7%
[5]
  viability, T/C: 69.4%
[6]
  viability, T/C: 67.2%
Second compound 0.1 µM, first compound 0.316 µM
  viability, T/C: 66.2%
Second compound 0.1 µM, first compound 1 µM
  viability, T/C: 61.2%
[9]
  viability, T/C: 65.9%
[10]
  viability, T/C: 78.9%
[11]
  viability, T/C: 62.1%
[12]
  viability, T/C: 72.1%
Second compound 0.316 µM, first compound 0.316 µM
  viability, T/C: 81.7%
Second compound 0.316 µM, first compound 1 µM
  viability, T/C: 59.3%
[15]
  viability, T/C: 75.1%
[16]
  viability, T/C: 71.4%
[17]
  viability, T/C: 65.6%
[18]
  viability, T/C: 82.5%
Second compound 1 µM, first compound 0.316 µM
  viability, T/C: 70.8%
Second compound 1 µM, first compound 1 µM
  viability, T/C: 71.7%
[21]
  viability, T/C: 66.4%
[22]
  viability, T/C: 72%
[23]
  viability, T/C: 81.8%
[24]
  viability, T/C: 72.2%
Second compound 3.16 µM, first compound 0.316 µM
  viability, T/C: 75.4%
Second compound 3.16 µM, first compound 1 µM
  viability, T/C: 66%
[27]
  viability, T/C: 69.5%
[28]
  viability, T/C: 69.5%
[29]
  viability, T/C: 67.6%
[30]
  viability, T/C: 63.1%
Second compound 10 µM, first compound 0.316 µM
  viability, T/C: 57.5%
Second compound 10 µM, first compound 1 µM
  viability, T/C: 71.6%

## O=C(C=Cc1cccc(S(=O)(=O)Nc2ccccc2)c1)NO + NC1CC1c1ccc(-c2cccc(O)c2)cc1
Second compound 0.1 µM
  IC50: 459 nM
Second compound 0.316 µM
  IC50: 438 nM
Second compound 1 µM
  IC50: 446 nM
Second compound 3.16 µM
  IC50: 347 nM
Second compound 10 µM
  IC50: 356 nM
Second compound 0.1 µM, first compound 0.00949 µM
  viability, T/C: 103%
Second compound 0.1 µM, first compound 0.03 µM
  viability, T/C: 113%
Second compound 0.1 µM, first compound 0.0949 µM
  viability, T/C: 82.4%
Second compound 0.1 µM, first compound 0.3 µM
  viability, T/C: 62.8%
Second compound 0.1 µM, first compound 0.949 µM
  viability, T/C: 30.1%
Second compound 0.1 µM, first compound 3 µM
  viability, T/C: 0.42%
Second compound 0.316 µM, first compound 0.00949 µM
  viability, T/C: 94.1%
Second compound 0.316 µM, first compound 0.03 µM
  viability, T/C: 102%
Second compound 0.316 µM, first compound 0.0949 µM
  viability, T/C: 91.1%
Second compound 0.316 µM, first compound 0.3 µM
  viability, T/C: 61.8%
Second compound 0.316 µM, first compound 0.949 µM
  viability, T/C: 23.8%
Second compound 0.316 µM, first compound 3 µM
  viability, T/C: 0.53%
Second compound 1 µM, first compound 0.00949 µM
  viability, T/C: 97.7%
Second compound 1 µM, first compound 0.03 µM
  viability, T/C: 107%
Second compound 1 µM, first compound 0.0949 µM
  viability, T/C: 87.8%
Second compound 1 µM, first compound 0.3 µM
  viability, T/C: 65.8%
Second compound 1 µM, first compound 0.949 µM
  viability, T/C: 22.1%
Second compound 1 µM, first compound 3 µM
  viability, T/C: 1.1%
Second compound 3.16 µM, first compound 0.00949 µM
  viability, T/C: 112%
Second compound 3.16 µM, first compound 0.03 µM
  viability, T/C: 101%
Second compound 3.16 µM, first compound 0.0949 µM
  viability, T/C: 89.1%
Second compound 3.16 µM, first compound 0.3 µM
  viability, T/C: 55.5%
Second compound 3.16 µM, first compound 0.949 µM
  viability, T/C: 17.1%
Second compound 3.16 µM, first compound 3 µM
  viability, T/C: 0.23%
Second compound 10 µM, first compound 0.00949 µM
  viability, T/C: 112%
Second compound 10 µM, first compound 0.03 µM
  viability, T/C: 112%
Second compound 10 µM, first compound 0.0949 µM
  viability, T/C: 83.7%
Second compound 10 µM, first compound 0.3 µM
  viability, T/C: 61%
Second compound 10 µM, first compound 0.949 µM
  viability, T/C: 14.7%
Second compound 10 µM, first compound 3 µM
  viability, T/C: 0.31%
